From ChEMBL document CHEMBL4251634, “Synthesis and antimicrobial activity of pyrimidinyl 1,3,4-oxadiazoles, 1,3,4-thiadiazoles and 1,2,4-triazoles” (2018)
Activity calls are given as the source filed them. No cut-off for these calls is given here.

Columns and labels:
Format in all cases: functional
[1] = system: Staphylococcus aureus; assay: Antibacterial activity against Staphylococcus aureus assessed as diameter of inhibition zone at 12.5 ug/well after 24 hrs by agar well diffusion method; settings: for zone of inhibition at 12.5 µg/disc: read-out: DIZ
[2] = system: Staphylococcus aureus; assay: Antibacterial activity against Staphylococcus aureus assessed as diameter of inhibition zone at 25 ug/well after 24 hrs by agar well diffusion method; settings: for zone of inhibition at 25 µg/disc: read-out: DIZ
[3] = system: Staphylococcus aureus; assay: Antibacterial activity against Staphylococcus aureus assessed as diameter of inhibition zone at 50 ug/well after 24 hrs by agar well diffusion method; settings: for zone of inhibition at 50 µg/disc: read-out: DIZ
[4] = system: Staphylococcus aureus; assay: Antibacterial activity against Staphylococcus aureus assessed as diameter of inhibition zone at 100 ug/well after 24 hrs by agar well diffusion method; settings: for zone of inhibition at 100 µg/disc: read-out: DIZ
[5] = system: Bacillus subtilis; assay: Antibacterial activity against Bacillus subtilis assessed as diameter of inhibition zone at 12.5 ug/well after 24 hrs by agar well diffusion method; settings: for zone of inhibition at 12.5 µg/disc: read-out: DIZ
[6] = system: Bacillus subtilis; assay: Antibacterial activity against Bacillus subtilis assessed as diameter of inhibition zone at 25 ug/well after 24 hrs by agar well diffusion method; settings: for zone of inhibition at 25 µg/disc: read-out: DIZ
[7] = system: Bacillus subtilis; assay: Antibacterial activity against Bacillus subtilis assessed as diameter of inhibition zone at 50 ug/well after 24 hrs by agar well diffusion method; settings: for zone of inhibition at 50 µg/disc: read-out: DIZ
[8] = system: Bacillus subtilis; assay: Antibacterial activity against Bacillus subtilis assessed as diameter of inhibition zone at 100 ug/well after 24 hrs by agar well diffusion method; settings: for zone of inhibition at 100 µg/disc: read-out: DIZ
[9] = system: Pseudomonas aeruginosa; assay: Antibacterial activity against Pseudomonas aeruginosa assessed as diameter of inhibition zone at 12.5 ug/well after 24 hrs by agar well diffusion method; settings: for zone of inhibition at 12.5 µg/disc: read-out: DIZ
[10] = system: Pseudomonas aeruginosa; assay: Antibacterial activity against Pseudomonas aeruginosa assessed as diameter of inhibition zone at 25 ug/well after 24 hrs by agar well diffusion method; settings: for zone of inhibition at 25 µg/disc: read-out: DIZ
[11] = system: Pseudomonas aeruginosa; assay: Antibacterial activity against Pseudomonas aeruginosa assessed as diameter of inhibition zone at 50 ug/well after 24 hrs by agar well diffusion method; settings: for zone of inhibition at 50 µg/disc: read-out: DIZ
[12] = system: Pseudomonas aeruginosa; assay: Antibacterial activity against Pseudomonas aeruginosa assessed as diameter of inhibition zone at 100 ug/well after 24 hrs by agar well diffusion method; settings: for zone of inhibition at 100 µg/disc: read-out: DIZ
[13] = system: Klebsiella pneumoniae; assay: Antibacterial activity against Klebsiella pneumoniae assessed as diameter of inhibition zone at 12.5 ug/well after 24 hrs by agar well diffusion method; settings: for zone of inhibition at 12.5 µg/disc: read-out: DIZ
[14] = system: Klebsiella pneumoniae; assay: Antibacterial activity against Klebsiella pneumoniae assessed as diameter of inhibition zone at 25 ug/well after 24 hrs by agar well diffusion method; settings: for zone of inhibition at 25 µg/disc: read-out: DIZ
[15] = system: Klebsiella pneumoniae; assay: Antibacterial activity against Klebsiella pneumoniae assessed as diameter of inhibition zone at 50 ug/well after 24 hrs by agar well diffusion method; settings: for zone of inhibition at 50 µg/disc: read-out: DIZ
[16] = system: Klebsiella pneumoniae; assay: Antibacterial activity against Klebsiella pneumoniae assessed as diameter of inhibition zone at 100 ug/well after 24 hrs by agar well diffusion method; settings: for zone of inhibition at 100 µg/disc: read-out: DIZ
[17] = system: Aspergillus niger; assay: Antifungal activity against Aspergillus niger assessed as diameter of inhibition zone at 12.5 ug/well after 48 hrs by agar well diffusion method; settings: for zone of inhibition at 12.5 µg/disc: read-out: DIZ
[18] = system: Aspergillus niger; assay: Antifungal activity against Aspergillus niger assessed as diameter of inhibition zone at 25 ug/well after 48 hrs by agar well diffusion method; settings: for zone of inhibition at 25 µg/disc: read-out: DIZ
[19] = system: Aspergillus niger; assay: Antifungal activity against Aspergillus niger assessed as diameter of inhibition zone at 50 ug/well after 48 hrs by agar well diffusion method; settings: read-out: DIZ
[20] = system: Aspergillus niger; assay: Antifungal activity against Aspergillus niger assessed as diameter of inhibition zone at 100 ug/well after 48 hrs by agar well diffusion method; settings: read-out: DIZ
[21] = system: Penicillium chrysogenum; assay: Antifungal activity against Penicillium chrysogenum assessed as diameter of inhibition zone at 12.5 ug/well after 48 hrs by agar well diffusion method; settings: for zone of inhibition at 12.5 µg/disc: read-out: DIZ
[22] = system: Penicillium chrysogenum; assay: Antifungal activity against Penicillium chrysogenum assessed as diameter of inhibition zone at 25 ug/well after 48 hrs by agar well diffusion method; settings: for zone of inhibition at 25 µg/disc: read-out: DIZ
[23] = system: Penicillium chrysogenum; assay: Antifungal activity against Penicillium chrysogenum assessed as diameter of inhibition zone at 50 ug/well after 48 hrs by agar well diffusion method; settings: for zone of inhibition at 50 µg/disc: read-out: DIZ
[24] = system: Penicillium chrysogenum; assay: Antifungal activity against Penicillium chrysogenum assessed as diameter of inhibition zone at 100 ug/well after 48 hrs by agar well diffusion method; settings: for zone of inhibition at 100 µg/disc: read-out: DIZ

Structure (SMILES) | diameter of the inhibition zone (DIZ) [1] | diameter of the inhibition zone (DIZ) [2] | diameter of the inhibition zone (DIZ) [3] | diameter of the inhibition zone (DIZ) [4] | diameter of the inhibition zone (DIZ) [5] | zone of inhibition at 100 µg/disc [8] [mm] | zone of inhibition at 12.5 µg/disc [9] [mm] | zone of inhibition at 25 µg/disc [10] [mm] | zone of inhibition at 50 µg/disc [11] [mm] | zone of inhibition at 100 µg/disc [12] [mm] | zone of inhibition at 12.5 µg/disc [13] [mm] | zone of inhibition at 25 µg/disc [14] [mm] | zone of inhibition at 50 µg/disc [15] [mm] | zone of inhibition at 100 µg/disc [16] [mm] | zone of inhibition at 12.5 µg/disc [17] [mm] | zone of inhibition at 25 µg/disc [18] [mm] | zone of inhibition at 50 µg/disc [19] [mm] | zone of inhibition at 100 µg/disc [20] [mm] | diameter of the inhibition zone (DIZ) [21] | zone of inhibition at 50 µg/disc [23] [mm] | also measured
Cc1cc(SCc2nnc(-c3ccc(Br)cc3)o2)nc(SCc2nnc(-c3ccc(Br)cc3)o2)n1 | inactive | inactive | inactive | inactive | inactive | 8 | 9 | 11 | 13 | 15 | 8 | 10 | 12 | 15 | 13 | 15 | 17 | 19 | inactive | 9 | diameter of the inhibition zone (DIZ) [6]: inactive; diameter of the inhibition zone (DIZ) [7]: inactive; zone of inhibition at 25 µg/disc [22]: 7 mm; zone of inhibition at 100 µg/disc [24]: 11 mm
Cc1ccc(-c2nnc(CSc3cc(C)nc(SCc4nnc(-c5ccc(C)cc5)o4)n3)o2)cc1 | inactive | inactive | inactive | inactive | inactive |  |  | 8 | 10 | 12 |  |  | 8 | 10 |  |  | 7 | 9 | inactive |  | diameter of the inhibition zone (DIZ) [6]: inactive; diameter of the inhibition zone (DIZ) [7]: inactive; diameter of the inhibition zone (DIZ) [8]: inactive; diameter of the inhibition zone (DIZ) [9]: inactive; diameter of the inhibition zone (DIZ) [13]: inactive; diameter of the inhibition zone (DIZ) [14]: inactive; diameter of the inhibition zone (DIZ) [17]: inactive; diameter of the inhibition zone (DIZ) [18]: inactive; diameter of the inhibition zone (DIZ) [22]: inactive; diameter of the inhibition zone (DIZ) [23]: inactive; diameter of the inhibition zone (DIZ) [24]: inactive
Cc1cc(SCc2nnc(-c3ccccc3)n2N)nc(SCc2nnc(-c3ccccc3)n2N)n1 |  |  |  |  |  | 17 | 14 | 16 | 19 | 23 | 17 | 19 | 22 | 24 | 17 | 19 | 21 | 24 |  | 14 | zone of inhibition at 12.5 µg/disc [1]: 8 mm; zone of inhibition at 25 µg/disc [2]: 9 mm; zone of inhibition at 50 µg/disc [3]: 10 mm; zone of inhibition at 100 µg/disc [4]: 12 mm; zone of inhibition at 12.5 µg/disc [5]: 10 mm; zone of inhibition at 25 µg/disc [6]: 12 mm; zone of inhibition at 50 µg/disc [7]: 14 mm; zone of inhibition at 12.5 µg/disc [21]: 11 mm; zone of inhibition at 25 µg/disc [22]: 12 mm; zone of inhibition at 100 µg/disc [24]: 16 mm
COc1ccc(-c2nnc(CSc3cc(C)nc(SCc4nnc(-c5ccc(OC)cc5)n4N)n3)n2N)cc1 | inactive | inactive | inactive | inactive | inactive |  |  |  |  |  |  |  |  |  |  |  | 8 | 10 | inactive |  | diameter of the inhibition zone (DIZ) [6]: inactive; diameter of the inhibition zone (DIZ) [7]: inactive; diameter of the inhibition zone (DIZ) [8]: inactive; diameter of the inhibition zone (DIZ) [9]: inactive; diameter of the inhibition zone (DIZ) [10]: inactive; diameter of the inhibition zone (DIZ) [11]: inactive; diameter of the inhibition zone (DIZ) [12]: inactive; diameter of the inhibition zone (DIZ) [13]: inactive; diameter of the inhibition zone (DIZ) [14]: inactive; diameter of the inhibition zone (DIZ) [15]: inactive; diameter of the inhibition zone (DIZ) [16]: inactive; diameter of the inhibition zone (DIZ) [17]: inactive; diameter of the inhibition zone (DIZ) [18]: inactive; diameter of the inhibition zone (DIZ) [22]: inactive; diameter of the inhibition zone (DIZ) [23]: inactive; diameter of the inhibition zone (DIZ) [24]: inactive
Cc1cc(SCc2nnc(-c3ccccc3)s2)nc(SCc2nnc(-c3ccccc3)s2)n1 |  |  |  |  |  | 18 | 15 | 19 | 20 | 24 | 20 | 21 | 23 | 26 | 15 | 17 | 19 | 22 |  | 12 | zone of inhibition at 12.5 µg/disc [1]: 10 mm; zone of inhibition at 25 µg/disc [2]: 11 mm; zone of inhibition at 50 µg/disc [3]: 12 mm; zone of inhibition at 100 µg/disc [4]: 13 mm; zone of inhibition at 12.5 µg/disc [5]: 11 mm; zone of inhibition at 25 µg/disc [6]: 13 mm; zone of inhibition at 50 µg/disc [7]: 15 mm; zone of inhibition at 12.5 µg/disc [21]: 9 mm; zone of inhibition at 25 µg/disc [22]: 10 mm; zone of inhibition at 100 µg/disc [24]: 14 mm
Cc1ccc(-c2nnc(CSc3cc(C)nc(SCc4nnc(-c5ccc(C)cc5)n4N)n3)n2N)cc1 | inactive | inactive | inactive | inactive | inactive | 11 | 9 | 11 | 14 | 18 | 12 | 13 | 15 | 18 | 10 | 12 | 14 | 16 | inactive | 8 | zone of inhibition at 25 µg/disc [6]: 7 mm; zone of inhibition at 50 µg/disc [7]: 9 mm; diameter of the inhibition zone (DIZ) [22]: inactive; zone of inhibition at 100 µg/disc [24]: 10 mm
